Results published in a melting point compilation (Tetko et al.; mined from patent text by program, amines drawn as free bases though some values may be those of a salt).

SMILES | melting point
CN(N=[N+](C)[O-])c1ccccc1 | 55 to 56 °C
CC(=O)N=NCc1ccc(OCCCCCOc2ccc(C(=O)N(c3ccccc3)C(C)C)c(Cl)c2)cc1 | 58 to 60 °C
Nc1ccc(CCOC(=O)Nc2ccc(Nc3ccccc3)cc2)cc1 | 140 °C
COC(=O)C1=C(C)Nc2nc(N3CCOCC3)nc(N3CCOCC3)c2C1c1cccc(Cl)c1Cl (stereo not given) | 188 °C
OCCSc1ccc(O)cc1 | 70 °C
CC1(C)CCN(Cc2ccc(COc3cccc4c3CN(C3CCC(=O)NC3=O)C4=O)cc2)CC1 (stereo not given) | 168 to 170 °C
Brc1cccc2[nH]cc(Cc3cccnc3)c12 | 173 to 174 °C
CCC1(CO)CCCN2CCc3c([nH]c4ccccc34)C21 (stereo not given) | 230 to 233 °C
COC(=O)c1ccc2nc(-c3ccc4c(c3)C(C)(C)CCC4(C)C)[nH]c2c1 | 223 °C
O=C(CCl)Nc1sccc1C(O)c1ccccc1Cl (stereo not given) | 118 to 120 °C
CN(C)CCNc1ccc(O)c2c1C(=O)c1c(O)ccc(O)c1C2=O | 171 to 172 °C
CCCCc1ncc(C(=O)OC)c(=O)n1Cc1ccc(-c2ccccc2C(=O)O)cc1 | 166 to 168 °C
COc1cccc(OC)c1-c1ccc(C[C@H](NC(=O)c2c(Cl)cc(-c3cnccn3)cc2Cl)C(=O)O)cc1 | 146 °C
CC(C)(C)OC(=O)N[C@@H](Cc1ccc(NC(=O)OCC2c3ccccc3-c3ccccc32)cc1)C(=O)OCc1ccccc1 | 186 to 187 °C
O=S1(=O)c2cccc3cccc(c23)N1CCN1CCC(CC2C=Cc3ccccc32)CC1 (stereo not given) | 166 °C
CC(=O)N1CCc2c(c3ccc(-n4ccc(OCc5ccccc5)cc4=O)nc3n2C)C1 | 206 to 208 °C
Cc1nc(N2CCN(CC(C)C)C2=O)sc1C(=O)NCc1ccncc1 | 185 to 187 °C
CCOC(=O)C1=C(C)NC(C)=C(C(=O)OCCN)C1c1cccc([N+](=O)[O-])c1 (stereo not given) | 137 to 139 °C
C[C@H](Cc1c[nH]c2c(OCc3ccccc3)cccc12)NC(=O)OC(C)(C)C | 94 to 95 °C

SMILES | melting point
CC(C)(O)CC(=O)N[C@H]1CC[C@H](CCN2CCN(c3nccc4c3CCO4)CC2)CC1 | 208 °C
COc1ccccc1-c1ccc2cnc(Nc3ccc(OCCN4CCOCC4)cc3)nn12 | 133 to 135 °C
CCOC(=O)COc1ccc(S(=O)(=O)CCNS(=O)(=O)c2ccccc2)cc1 | 86.5 to 88 °C
CC(=O)Oc1ccccc1C1CCC(=O)CC1 | 86 to 87 °C
O=C(OCc1ccccc1)C1(NS(=O)(=O)c2ccc(Oc3ccc(F)cc3)cc2)CCCC1 | 97 to 97.5 °C
OC1CC=CCC1N1CCN(C2CC=CCC2O)CC1 (stereo not given) | 207 to 209 °C
O=C(O)C1CCC(O)CC1 (stereo not given) | 110 to 130 °C
CN(O)C(=O)c1ccc(C=Cc2ccccn2)cc1 | 135 to 138 °C
CC(=O)O[C@H]1C[C@@H](n2ccc(=O)cc2)[C@H](O)[C@@H]1O (racemic) | 191 to 196 °C
COc1ccc(CC(N)=O)cc1OC | 142 to 144 °C
COc1ccc(N=C(Cl)c2cccc([N+](=O)[O-])c2)cc1 | 108 °C
CC(CC(=O)O)CC(=O)NCCc1ccccc1 (stereo not given) | 78 to 80 °C
CC(C)(C)P(=O)(O)CCCN | 253 to 255 °C
O=C(O)N1CCN2c3sc4c(c3CN(c3ccccc3Cl)CC12)CC=C4 (stereo not given) | 315 °C
Cc1cc2c(-c3ccccc3)c(CCO)n(C)c(=O)c2cc1C | 204 to 207 °C
CCOC(=O)C1(c2ccccc2)CCN(C(C)=O)C(=O)C1 (stereo not given) | 45 to 46 °C
CCN(CC)C(=O)Nc1ccc(S(=O)(=O)N2C(=O)C(NCCCC(N)=O)(c3ccccc3Cl)c3cc(Cl)ccc32)cc1 (stereo not given) | 192 °C
O=C1Cc2c(cc3ccccc3c2Br)C(c2ccccc2Cl)N1 (stereo not given) | 256 to 257 °C
Clc1ccccc1OCC1(c2ccccc2)CCN(Cc2ccccc2)CCO1 (stereo not given) | 114 to 115 °C

SMILES | melting point
O=C(O)Cc1c(-c2ccc(Cl)cc2)nn(-c2ccccc2)c1-c1ccc(Cl)cc1 | 204 to 206 °C
CCCNC(=S)NCCCCn1c(-c2ccccc2)nc2c(N)nc3ccccc3c21 | 113 to 116 °C
O=C(O)c1ccccc1OCCCCCOc1ccccc1C(=O)O | 105 to 106 °C
COc1cc(C2=CCCCC2)c(Cl)cc1C(=O)N1Cc2ccc(C(=O)N(C)CCCN(C)C)n2Cc2ccccc21 | 116 to 119 °C
CCCc1nc(SC)c(C(O)CO)n1Cc1ccc(-c2ccccc2S(=O)(=O)NC(=O)NCc2ccccc2)cc1 (stereo not given) | 140 °C
CCCOc1ccc(-c2ccc3c(c2)C=C(C(=O)Nc2ccc(CN(C)C4CCOCC4)cc2)CCS3(=O)=O)cc1OCC | 203 to 205 °C
CC1(O)CC2(C)C(=O)CCC2C2CCC3=CC(=O)CCC3(C)C21 (stereo not given) | 150 to 151 °C
Cn1nnnc1SCCCCN1C(=O)c2ccccc2C1=O | 92 to 93 °C
Cn1c([N+](=O)[O-])cnc1CS(=O)c1ccccn1 (stereo not given) | 160 °C
CC(C)(C)C(NC(=O)c1ccc(Cl)cc1)NC(=NC#N)Nc1cccc(Cl)c1 (stereo not given) | 158 to 160 °C
COC(=O)C1=C(C)NC(N)=C(C(=O)OC(C)C)C1c1ccccc1C#N (stereo not given) | 211 °C
O=C1CCC(N2Cc3c(OCc4ccc(CN5CCCCC5)cc4)cccc3C2=O)C(=O)N1 (stereo not given) | 186 to 188 °C
CN1CCc2c(-c3ccc(S(=O)(=O)N(C)C)cc3)cc3c(c2C1)N(C)C(=O)C3=O | 232 to 240 °C
CCN1C(=O)C(C)(C)C(=O)N(C)c2cc(CN(CCn3ccc4oc(C)cc4c3=O)C(C)c3cccnc3)ccc21 (stereo not given) | 128 to 132 °C
C#CC1(O)CCc2c(O)c3c(c(O)c2C1)C(=O)c1ccccc1C3=O (stereo not given) | 230 °C
O=C(NC1CCSC2COCC(C(=O)O)N2C1=O)C(S)Cc1ccccc1 (stereo not given) | 224 to 226 °C
CN1CCc2cc(C#CCO)cc3c(=O)c(C(=O)NCc4ccc(Cl)cc4)cn1c23 | 165 to 167 °C
CCCCCCCCCCCCCCCc1cc2cc(C(=O)OCC)ccc2[nH]1 | 89 to 91 °C
CCOC(=O)c1c(C)n(C(=O)c2ccccc2)c2ccc(Oc3nc(OC)cc(OC)n3)c(C(=O)O)c12 | 113 to 115 °C

More lines, now with the values ahead:

melting point | SMILES
113 to 115 °C | CC(C)OC(=O)c1cc(-n2c(=O)c3c(n(C)c2=O)CCCC3)c(F)cc1Cl
152 to 154 °C | O=C(Nc1cc(C(F)(F)F)on1)c1ccccc1
135 to 137 °C | CCOC(=O)c1cc(OC(C)=O)c2cc(N3CCOCC3)ccc2c1
260 °C | NC(=O)c1cc(Cl)c(NC(=O)CCl)c(Cl)c1
75 °C | CCOC(=O)CC(c1ccccc1)(c1ccccc1)c1ncc[nH]1
131 to 133 °C | COc1cc2c(cc1F)C1(CO2)C(=O)N(CC2CCCCO2)c2ccccc21 (stereo not given)
170 to 171 °C | CCCN(C(N)=S)c1cccc2ccccc12
299 to 300 °C | CCn1cc(C(=O)O)c(=O)c2cc(F)c(N3CCCC3)nc21
152 to 154 °C | COC(=O)NCc1cccc(-c2ccnc3c(C(=O)c4ccco4)cnn23)c1
> 300 °C | N#Cc1ccc2c(c1)NC(=O)C2c1ncnc2c1cnn2C1CCCCC1 (stereo not given)
149 to 150 °C | Cc1c(SCCCN2CCOCC2)ccnc1CSc1nc2ccccc2[nH]1
145 to 147 °C | COc1cc(NC(=O)N2CCOCN2)c(F)cc1Cl
186 °C | O=c1ncc(Cl)cn1CSCc1ccccc1
138 °C | Cc1c(NC(=O)c2ccc(OCC3CCCO3)cc2)ccc2cc(CNCC(C)(C)O)cnc12 (stereo not given)
58.3 °C | CCOc1ccccc1C=[N+]([O-])C(C)(C)C
38 to 39 °C | CCCc1ccc(CCCOc2c(C)cc(-c3nnn(C)n3)cc2C)o1
257 °C | CCC(=O)NS(=O)(=O)c1ccc(-c2cc(-c3nc(-c4ccc(C(F)(F)F)cc4)cc(C(F)(F)F)n3)ccn2)s1
139 to 141 °C | CNC(=O)N1CC(Oc2ccc(F)cc2Cl)C1
263 to 264 °C | CON=C1CN(c2cc3c(cc2F)c(=O)c(C(=O)O)cn3-c2ccc(F)cc2F)CC12CN(C(=O)OC(C)(C)C)C2
179 to 180 °C | Cc1c(F)cc(C(=O)O)c(Cl)c1Cl
162 °C | CCOC(=O)C(=Cc1ccccc1)c1csc(N)n1
118 to 120 °C | CCCCc1nc2c(N)nc3ccccc3c2n1CCCCSc1ccccc1

melting point | SMILES
204 to 207 °C | COc1ccc2c(c1)C(=O)N(c1ccc3ncsc3c1)C2
109 to 110 °C | COC(=O)C(C#N)c1ncc(Cl)cc1Cl (stereo not given)
228 to 230 °C | Cc1ncc2cc(-c3c(Cl)cccc3Cl)c(NC(=O)c3ccco3)nc2n1
87 to 88 °C | CCOC(=O)c1cnc2ccc(Cl)cc2c1Cl
74 °C | [N-]=[N+]=NCn1cc(Cl)c(-c2cc(Cl)cc(Cl)c2)n1
77 to 78 °C | Cc1ccc(-c2ccc(Sc3ccccc3)s2)cc1C
103 to 105 °C | CC(C)N1CCN(CCCOc2ccc3nc(C#N)nc(NCC(C)(C)C)c3c2)CC1
82 to 84 °C | O=C(O)c1cc(C(F)(F)F)c(F)c(F)c1F
21 to 22 °C | Fc1ccc2sccc2c1
226 to 227 °C | O=C(O)C1=C(c2ccccc2)c2cc(Cl)ccc2OC1CC(F)(F)F (stereo not given)
176 °C | Brc1ccc2nc(-c3cccnc3)nn2c1
90 to 91 °C | CCOC(=O)c1c(C(F)(F)F)oc(C(F)(F)F)c(C(=O)OCC)c1=O
111 to 116 °C | CC(Br)c1ccc2onc(-c3ccc(Cl)cc3)c2c1 (stereo not given)
111 °C | COC(=O)CCCC(=O)c1ccc(OC)c(I)n1
115 to 117 °C | C[C@@H](O)[C@](O)(Cn1cncn1)c1ccc(F)cc1F (racemic)
202 °C | O=c1cc(Sc2ccccc2)cc[nH]1
249 to 250 °C | CS(=O)(=O)NCCCC1COCc2nc3c(N)nc4ccccc4c3n21 (stereo not given)
44 to 45 °C | Nc1cc(C(F)(F)F)on1
224 to 225 °C | CC12CCC3c4ccc(C(=O)O)cc4CCC3C1CCC2C(=O)c1ccc(Oc2ccccc2)cc1 (stereo not given)
208 to 210 °C | COc1ncccc1Nc1c(NC(NC(=O)c2cccc(Cl)c2)C(C)(C)C)c(=O)c1=O (stereo not given)
126 to 128 °C | CCOC(=O)C(=NOCCCl)c1csc(N)n1
